Results on four compounds are retold here after US20220142925A1, “NON-STEROIDAL ANTI-INFLAMMATORY LYOPHILIZED PHARMACEUTICAL COMPOSITION” (EUROFARMA LABORATÓRIOS S.A., priority 2019, published 2022).

The conditions of data set [1]: cited from earlier work; for solubility (in words): aqueous; for solubility: 20° C.
Data set [2] concerns the target cyclooxygenase 1 (COX-1) (Homo sapiens, UniProt P23219). To be noted: therapeutic plasma concentrations in humans; cited from earlier work.
Data set [3] in a line: Forced degradation study (formation of valdecoxib). Type of data set: physicochemical. To be noted: oxidative, basic, acidic conditions.
The conditions of data set [4]: cited from earlier work.

Where two headings read alike, the source gives them in different places.

cyclooxygenase 1 (COX-1), sequence (P23219 24-599): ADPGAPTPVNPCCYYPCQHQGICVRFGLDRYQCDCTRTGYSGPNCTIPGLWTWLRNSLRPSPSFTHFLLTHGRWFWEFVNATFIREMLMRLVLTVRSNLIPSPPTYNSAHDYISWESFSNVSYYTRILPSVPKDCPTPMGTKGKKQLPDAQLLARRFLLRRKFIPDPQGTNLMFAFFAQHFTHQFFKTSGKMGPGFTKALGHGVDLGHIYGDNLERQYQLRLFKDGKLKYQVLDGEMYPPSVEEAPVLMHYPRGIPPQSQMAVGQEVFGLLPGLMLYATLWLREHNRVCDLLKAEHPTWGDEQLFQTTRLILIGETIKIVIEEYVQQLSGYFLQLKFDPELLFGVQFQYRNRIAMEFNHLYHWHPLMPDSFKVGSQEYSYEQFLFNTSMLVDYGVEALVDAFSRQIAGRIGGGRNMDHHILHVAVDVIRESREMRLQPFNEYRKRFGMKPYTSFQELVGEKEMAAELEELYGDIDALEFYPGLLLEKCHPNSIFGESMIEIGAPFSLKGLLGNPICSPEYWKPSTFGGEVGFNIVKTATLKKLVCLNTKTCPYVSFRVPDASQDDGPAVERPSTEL

Regarding `CCC(=O)NS(=O)(=O)c1ccc(-c2c(-c3ccccc3)noc2C)cc1` [acidic form of parecoxib], in data set [1], the “solubility (in words)” value is on record as “low solubility”.

Regarding `Cc1onc(-c2ccccc2)c1-c1ccc(S(N)(=O)=O)cc1` [valdecoxib], the “inhibition of cyclooxygenase 1 (COX-1)” value in data set [2] is “does not inhibit”. For the same compound, the “solubility (in words)” value in data set [1] is reported as “low”.

The solubility is the concentration that dissolves in the medium under given conditions. In the case of `CCC(=O)NS(=O)(=O)c1ccc(-c2c(-c3ccccc3)noc2C)cc1.[Na+]` [parecoxib sodium, N-[[4-(5-methyl-3-phenyl-4-isoxazolyl)phenyl]sulfonyl]propanamide sodium salt], the “sensitivity in forced degradation in relation to the formation of valdecoxib” value in data set [3] was “sensitive to oxidative, basic, and acidic conditions”. The solubility was 18 mg/mL in data set [1] (pH 7.8) and 220 mg/mL in data set [1] (pH 8.3). Moreover, in data set [1], the “solubility (in words)” value is recorded as “highly soluble”.

For `CCC(=O)NS(=O)(=O)c1ccc(-c2c(-c3ccccc3)noc2C)cc1` [Parecoxib, parecoxib], the “pH of 1% parecoxib in water” value in data set [4] (1% in water at 25° C.) is given as “about 7.80”. The “dissociation constant, pKa” value in data set [4] is listed as 6.07. Besides, the “solubility in methylene hydrochloride” value in data set [1] (methylene chloride) is listed as “insoluble”. In addition, the solubility in tetrahydrofuran entry in data set [1] (tetrahydrofuran) was “slightly soluble”. For the same compound, the solubility in water entry in data set [1] (water) is on record as “very soluble”.
